These results are taken from patent US10874743B2, “IRAK degraders and uses thereof” (Kymera Therapeutics, Inc., priority 2017, dated 2020).

One experiment has as its target T1, IRAK4 (Homo sapiens, UniProt Q9NWZ3).
T1 sequence (Q9NWZ3 1-460): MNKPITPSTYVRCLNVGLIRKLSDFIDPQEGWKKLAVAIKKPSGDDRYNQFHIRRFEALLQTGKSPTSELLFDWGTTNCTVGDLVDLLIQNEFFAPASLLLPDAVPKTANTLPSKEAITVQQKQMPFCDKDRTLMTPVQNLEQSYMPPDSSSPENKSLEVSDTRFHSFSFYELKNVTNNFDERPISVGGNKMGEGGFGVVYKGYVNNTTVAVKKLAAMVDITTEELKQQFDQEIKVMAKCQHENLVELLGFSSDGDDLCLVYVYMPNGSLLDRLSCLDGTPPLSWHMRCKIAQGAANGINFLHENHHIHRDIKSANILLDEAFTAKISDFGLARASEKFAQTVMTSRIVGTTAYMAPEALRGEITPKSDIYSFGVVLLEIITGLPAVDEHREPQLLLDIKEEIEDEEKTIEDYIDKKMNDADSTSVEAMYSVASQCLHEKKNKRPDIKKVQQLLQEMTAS
Briefly: OCI-LY-10 MSD assay for IRAK4 DC50. The format is cell-based. On the set-up: endogenous in cells; host or cells: OCI-LY10. As to conditions: OCI-LY10 cells, 4 hr incubation, concentration required to degrade 50% of protein. Summed up:
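IRAK4 level was quantified by MSD electrochemiluminescence (anti-IRAK4 capture antibody, rabbit anti-IRAK4 detection antibody) in RIPA lysates of OCI-Ly10 cells. Cells had been treated with compound for 4 hr (8-point, 3-fold serial dilution). Remaining protein versus concentration was fitted to a sigmoidal curve to give DC50.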

In the next experiment the test system is OCI-LY10 cells. The experiment can be described thus: OCI-LY-10 CTG cell viability assay (EC50). Conditions: Homo sapiens, 96 h, CellTiter-Glo cell viability, 4 days incubation, top concentration 10 μM, read-out: OCI-LY10 IRAK4 EC50. It counts as cell-based. Summed up:
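OCI-LY10 cells were exposed to a 9-dose, 1:3 series (top 10 μM, 0.2% DMSO) for 4 days at 37 °C. Viability was measured by CellTiter-Glo luminescence, and EC50 came from a three-parameter logistic fit.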

Consider `CN[C@@H](C)C(=O)N[C@H](C(=O)N1CCC[C@H]1c1nc(C(=O)c2cccc(OCCOCCOCCOCCOCCOCCNCc3ccc(-n4cc(NC(=O)c5coc(-c6ccnc(NCC7CC7)c6)n5)c(C(F)F)n4)cc3)c2)cs1)C1CCCCC1` [I-553], for which the DC50 (in general, the concentration giving 50% degradation) on IRAK4 lay in the range of 500 to 1000 nM. For the same molecule, the EC50 (as a rule, the concentration that produces a half-maximal response) in the experiment with OCI-LY10 cells was greater than 1000 nM.
In the same order, the values of `O=C1CCC(N2C[C@H](c3cccc(C#CCN4CCO[C@@H](CNCc5ccc(-n6cc(NC(=O)c7coc(-c8ccnc(NCC9CC9)c8)n7)c(C(F)F)n6)cc5)C4)c3)OC2=O)C(=O)N1` (stereo partly drawn) [I-584] are less than 50 nM and 50 to 100 nM.
Take `Cn1c(=O)n(C2CCC(=O)NC2=O)c2ccc(CN3CCN(CCO[C@H]4C[C@H](NCc5ccc(-n6cc(NC(=O)c7coc(-c8ccnc(NCC9CC9)c8)n7)c(C(F)F)n6)cc5)C4)CC3)cc21` (stereo partly drawn) [I-583]: the DC50 at IRAK4 is less than 50 nM. For the same molecule, the EC50 with OCI-LY10 cells was less than 50 nM.
Molecule `Cn1c(=O)n(C2CCC(=O)NC2=O)c2cccc(CCCN3CCO[C@H](CNCc4ccc(-n5cc(NC(=O)c6coc(-c7ccnc(NCC(F)(F)F)c7)n6)c(C(N)=O)n5)cc4)C3)c21` (stereo partly drawn) [I-593] returned a DC50 at IRAK4 of less than 50 nM. Moreover, in the experiment on OCI-LY10 cells, the EC50 is 100 to 500 nM.
In the same order, the values of `CN[C@@H](C)C(=O)N[C@H](C(=O)N1Cc2cc(OCCOCCOCCOCCNC(=O)c3ccc(-n4cc(NC(=O)c5coc(-c6ccnc(NCC7CC7)c6)n5)c(C(F)F)n4)cc3)ccc2C[C@H]1C(=O)N[C@@H]1CCCc2ccccc21)C(C)(C)C` [I-521] are greater than 1000 nM and greater than 1000 nM.
In the same order, the values of `O=C1CCC(n2c(=O)oc3cc(CCCOCCCNCc4ccc(-n5cc(NC(=O)c6coc(-c7ccnc(NCC8CC8)c7)n6)c(C(F)F)n5)cc4)ccc32)C(=O)N1` (stereo not drawn) [I-549] are less than 50 nM and less than 50 nM.
For `O=C1CCC(n2c(=O)oc3c(CCCOCCCNC(=O)c4ccc(-n5cc(NC(=O)c6coc(-c7ccnc(NCC8CC8)c7)n6)c(C(F)F)n5)cn4)cccc32)C(=O)N1` (stereo not drawn) [I-479], in that order: less than 50 nM and less than 50 nM.
For the molecule `O=C1CCC(N2C[C@H](c3ccc(C#CCN4CCO[C@@H](CNC(=O)c5ccc(-n6cc(NC(=O)c7coc(-c8ccnc(NCC9CC9)c8)n7)c(C(F)F)n6)cc5)C4)cc3)OC2=O)C(=O)N1` (stereo partly drawn) [I-509], the DC50 at IRAK4 was less than 50 nM. The EC50 in the experiment with OCI-LY10 cells was less than 50 nM.
For `Cn1c(=O)n(C2CCC(=O)NC2=O)c2ccc(CNC(=O)COCCNCc3ccc(-n4cc(NC(=O)c5coc(-c6ccnc(NCC7CC7)c6)n5)c(C(F)F)n4)cc3)cc21` (stereo not drawn) [I-543], at IRAK4, the DC50 is less than 50 nM. Besides, in the experiment on OCI-LY10 cells, the EC50 was less than 50 nM.
With `Cn1c(=O)n(C2CCC(=O)NC2=O)c2ccc(CNC(=O)OCCCNCc3ccc(-n4cc(NC(=O)c5coc(-c6ccnc(NCC7CC7)c6)n5)c(C(F)F)n4)cc3)cc21` (stereo not drawn) [I-545], on IRAK4, the 50% degradation concentration (DC50) is less than 50 nM. Further, the concentration giving a half-maximal response (EC50) in the experiment on OCI-LY10 cells is less than 50 nM.
Take `NC(=O)c1nn(-c2ccc(CNCCOCCOCCOC(=O)NCc3ccc4c(c3)CN(C3CCC(=O)NC3=O)C4=O)cc2)cc1NC(=O)c1coc(-c2ccnc(NCC(F)(F)F)c2)n1` (stereo not drawn) [I-579]: at IRAK4, the DC50 fell in the range of 100 to 500 nM. For the same molecule, the EC50 in the experiment on OCI-LY10 cells is greater than 1000 nM.
For `CN(CCCCOCCCCc1ccc2c(c1)n(C)c(=O)n2C1CCC(=O)NC1=O)C(=O)c1ccc(-n2cc(NC(=O)c3coc(-c4ccnc(NCC(F)(F)F)c4)n3)c(C(N)=O)n2)cc1` (stereo not drawn) [I-489], in that order: less than 50 nM and 500 to 1000 nM.
In the same order, the values of `Cn1c(=O)n(C2CCC(=O)NC2=O)c2cccc(CCCOCCNCc3ccc(-n4cc(NC(=O)c5coc(-c6ccnc(NCC7CC7)c6)n5)c(C(F)F)n4)cc3)c21` (stereo not drawn) [I-530] are less than 50 nM and less than 50 nM.
For the molecule `CN[C@@H](C)C(=O)N[C@H](C(=O)N1Cc2cc(OCCOCCOCCOCCOCCNCc3nn(C)cc3NC(=O)c3coc(-c4ccnc(NCC(F)(F)F)c4)n3)ccc2C[C@H]1C(=O)N[C@@H]1CCCc2ccccc21)C(C)(C)C` [I-682], the DC50 on IRAK4 was greater than 1000 nM. For the same molecule, the EC50 with OCI-LY10 cells is greater than 1000 nM.
`Cn1cc(NC(=O)c2coc(-c3ccnc(NCC(F)(F)F)c3)n2)c(C(=O)NCCOCCOCCOCCCc2ccc3c(c2)n(C)c(=O)n3C2CCC(=O)NC2=O)n1` (stereo not drawn) [I-463] registered a DC50 at IRAK4 greater than 1000 nM. Besides, the EC50 in the experiment on OCI-LY10 cells was greater than 1000 nM.
Consider `CN(CC(=O)N(C)CC(=O)N(C)CC(=O)N(C)CCCc1cccc2c1n(C)c(=O)n2C1CCC(=O)NC1=O)Cc1nn(C)cc1NC(=O)c1coc(-c2ccnc(NCC(F)(F)F)c2)n1` (stereo not drawn) [I-525], for which the DC50 at IRAK4 was greater than 1000 nM. Further, the EC50 in the experiment with OCI-LY10 cells was greater than 1000 nM.
On IRAK4, `Cn1c(=O)n(C2CCC(=O)NC2=O)c2ccc(CCCNCC3COC4C(CNCc5ccc(-n6cc(NC(=O)c7coc(-c8ccnc(NCC9CC9)c8)n7)c(C(F)F)n6)cc5)COC34)cc21` (stereo not drawn) [I-537] had a DC50 of less than 50 nM. Besides, the EC50 in the experiment on OCI-LY10 cells was less than 50 nM.
For `CN(CCCOCCCc1cccc2c1oc(=O)n2C1CCC(=O)NC1=O)C(=O)c1ccc(-n2cc(NC(=O)c3coc(-c4ccnc(NCC5CC5)c4)n3)c(C(F)F)n2)cc1` (stereo not drawn) [I-476], the DC50 at IRAK4 is less than 50 nM. For the same molecule, the EC50 with OCI-LY10 cells lay within 100 to 500 nM.
For `CN(C[C@H]1CN(CCCc2ccc3c(c2)n(C)c(=O)n3C2CCC(=O)NC2=O)CCO1)C(=O)c1ccc(-n2cc(NC(=O)c3coc(-c4ccnc(NCC(F)(F)F)c4)n3)c(C(F)F)n2)cc1` (stereo partly drawn) [I-487], in that order: less than 50 nM and 50 to 100 nM.
In the same order, the values of `Cn1c(=O)n(C2CCC(=O)NC2=O)c2cccc(CCCN3CCO[C@H](CNCc4ccc(-n5cc(NC(=O)c6coc(-c7ccnc(NCC8CC8)c7)n6)c(C(F)F)n5)cc4)C3)c21` (stereo partly drawn) [I-587] are less than 50 nM and less than 50 nM.
In the same order, the values of `Cn1cc(NC(=O)c2coc(-c3ccnc(NCC(F)(F)F)c3)n2)c(-c2cncc(C(=O)NCCOCCOCCCc3cccc4c3n(C)c(=O)n4C3CCC(=O)NC3=O)c2)n1` (stereo not drawn) [I-472] are greater than 1000 nM and greater than 1000 nM.
`O=C1CCC(N2Cc3cc(CNC(=O)NCCOCCOCCNCc4ccc(-n5cc(NC(=O)c6coc(-c7ccnc(NCC8CC8)c7)n6)c(C(F)F)n5)cc4)ccc3C2=O)C(=O)N1` (stereo not drawn) [I-529] displayed a DC50 at IRAK4 of 50 to 100 nM. The EC50 in the experiment on OCI-LY10 cells was 50 to 100 nM.
Turning to `O=C1CCC(n2c(=O)n(CCOCCOCCNCc3ccc(-n4cc(NC(=O)c5coc(-c6ccnc(NCC7CC7)c6)n5)c(C(F)F)n4)cc3)c3ccccc32)C(=O)N1` (stereo not drawn) [I-552], at IRAK4, the DC50 was less than 50 nM. In addition, the EC50 in the experiment on OCI-LY10 cells was less than 50 nM.
For the molecule `Cn1c(=O)n(C2CCC(=O)NC2=O)c2ccc(CCCN3CCO[C@H](CCNCc4ccc(-n5cc(NC(=O)c6coc(-c7ccnc(NCC(F)(F)F)c7)n6)c(C(N)=O)n5)cc4)C3)cc21` (stereo partly drawn) [I-576], at IRAK4, the DC50 is less than 50 nM. Also, the EC50 with OCI-LY10 cells is less than 50 nM.
The molecule `O=C1CCC(n2c(=O)oc3c(CCCOCCCNCc4ccc(-n5cc(NC(=O)c6coc(-c7ccnc(NCC8CC8)c7)n6)c(C(F)F)n5)cc4)cccc32)C(=O)N1` (stereo not drawn) [I-548] showed a DC50 on IRAK4 of less than 50 nM. Moreover, the EC50 in the experiment with OCI-LY10 cells was less than 50 nM.
On to `Cn1cc(NC(=O)c2coc(-c3ccnc(NCC(F)(F)F)c3)n2)c(C(=O)NCCOCCOCCOCCOCCOCCNc2cccc3c2C(=O)N(C2CCC(=O)NC2=O)C3=O)n1` (stereo not drawn) [I-449], for which the DC50 on IRAK4 is greater than 1000 nM. Moreover, the EC50 in the experiment with OCI-LY10 cells was greater than 1000 nM.
At IRAK4, `CN(CC1CCN(CCC#Cc2ccc3c(c2)n(C)c(=O)n3C2CCC(=O)NC2=O)CC1)C(=O)c1ccc(-n2cc(NC(=O)c3coc(-c4ccnc(NCC5CC5)c4)n3)c(C(F)F)n2)cc1` (stereo not drawn) [I-504] came in with a DC50 of less than 50 nM. The EC50 with OCI-LY10 cells is less than 50 nM.
`Cn1c(=O)n(C2CCC(=O)NC2=O)c2cccc(CCCCOCCCCNCc3ccc(-n4cc(NC(=O)c5coc(-c6ccnc(NCC7CC7)c6)n5)c(C(F)F)n4)cc3)c21` (stereo not drawn) [I-523] showed a DC50 at IRAK4 of 50 to 100 nM. Also, in the experiment with OCI-LY10 cells, the EC50 was less than 50 nM.
On IRAK4, `Cn1c(=O)n(C2CCC(=O)NC2=O)c2cccc(CCCN3CCO[C@@H](CNCc4ccc(-n5cc(NC(=O)c6coc(-c7ccnc(NCC8CC8)c7)n6)c(C(F)F)n5)cc4)C3)c21` (stereo partly drawn) [I-588] yielded a DC50 of less than 50 nM. Besides, in the experiment on OCI-LY10 cells, the EC50 was less than 50 nM.
For `CN(C[C@H]1CN(CCCc2ccc3c(c2)n(C)c(=O)n3C2CCC(=O)NC2=O)CCO1)C(=O)c1ccc(-n2cc(NC(=O)c3coc(-c4ccnc(NCC5CC5)c4)n3)c(C(F)F)n2)cc1` (stereo partly drawn) [I-490], at IRAK4, the DC50 is less than 50 nM. Also, the EC50 with OCI-LY10 cells is less than 50 nM.
As to `Cn1c(=O)n(C2CCC(=O)NC2=O)c2ccc(CCCOCCOC3CCN(C(=O)c4ccc(-n5cc(NC(=O)c6coc(-c7ccnc(NCC8CC8)c7)n6)c(C(F)F)n5)cc4)CC3)cc21` (stereo not drawn) [I-517], the DC50 on IRAK4 was less than 50 nM. In the experiment on OCI-LY10 cells, the EC50 is greater than 1000 nM.
The molecule `NC(=O)c1nn(-c2ccc(CNCCOCCOCCCc3ccc4c(c3)oc(=O)n4C3CCC(=O)NC3=O)cc2)cc1NC(=O)c1coc(-c2ccnc(NCC(F)(F)F)c2)n1` (stereo not drawn) [I-568] displayed a DC50 at IRAK4 of less than 50 nM. Also, in the experiment on OCI-LY10 cells, the EC50 lay in the range of 100 to 500 nM.
In the same order, the values of `CN[C@@H](C)C(=O)N[C@H](C(=O)N1CCC[C@H]1c1nc(C(=O)c2cccc(OCCOCCOCCNCc3ccc(-n4cc(NC(=O)c5coc(-c6ccnc(NCC7CC7)c6)n5)c(C(F)F)n4)cc3)c2)cs1)C1CCCCC1` [I-556] are 500 to 1000 nM and greater than 1000 nM.
